From PubChem BioAssay AID1963858 (Molecular Pharmacology Branch, DTP, NCI, 2024)

Tested on: HOP-62 multicell spheroids with HUVEC/MSC, viability
Assay: Anticancer human tumor HOP-62 cell line growth inhibition [KRAS2];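 further: viability read after a week of compound exposure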;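 on viability, T/C: 100% = DMSO vehicle-treated spheroids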
Settings: for IC50: curve of first compound; for viability, T/C: stronger effect = lower value
Summary of the method: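 KRAS-mutant tumor cells were grown as spheroids with HUVEC endothelial cells and human MSCs as stroma. Targeted agents were tested alone and with KRAS pathway inhibitors. Doses started at or near clinical Cmax, or 10 microM, descending half-log.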

[1] = second compound 0.1 µM, first compound 0.01 µM
[2] = second compound 0.1 µM, first compound 0.0316 µM
[3] = second compound 0.1 µM, first compound 0.1 µM
[4] = second compound 0.1 µM, first compound 0.316 µM
[5] = second compound 0.1 µM, first compound 1 µM
[6] = second compound 0.316 µM, first compound 0.01 µM
[7] = second compound 0.316 µM, first compound 0.0316 µM
[8] = second compound 0.316 µM, first compound 0.1 µM
[9] = second compound 0.316 µM, first compound 0.316 µM
[10] = second compound 0.316 µM, first compound 1 µM
[11] = second compound 1 µM, first compound 0.01 µM
[12] = second compound 1 µM, first compound 0.0316 µM
[13] = second compound 1 µM, first compound 0.1 µM
[14] = second compound 1 µM, first compound 0.316 µM
[15] = second compound 1 µM, first compound 1 µM
[16] = second compound 3.16 µM, first compound 0.01 µM
[17] = second compound 3.16 µM, first compound 0.0316 µM
[18] = second compound 3.16 µM, first compound 0.1 µM
[19] = second compound 3.16 µM, first compound 0.316 µM
[20] = second compound 3.16 µM, first compound 1 µM
[21] = second compound 10 µM, first compound 0.01 µM
[22] = second compound 10 µM, first compound 0.0316 µM
[23] = second compound 10 µM, first compound 0.1 µM
[24] = second compound 10 µM, first compound 0.316 µM
[25] = second compound 10 µM, first compound 1 µM
[26] = second compound 0.1 µM, first compound 0.00316 µM
[27] = second compound 0.316 µM, first compound 0.00316 µM
[28] = second compound 1 µM, first compound 0.00316 µM
[29] = second compound 3.16 µM, first compound 0.00316 µM
[30] = second compound 10 µM, first compound 0.00316 µM

Compound `CC(=O)OC12COC1CC(O)C1(C)C(=O)C(O)C3=C(C)C(OC(=O)C(O)C(NC(=O)OC(C)(C)C)c4ccccc4)CC(O)(C(OC(=O)c4ccccc4)C21)C3(C)C` (stereo not given) + CNCc1ccccc1-c1csc(C(C)Nc2nc(C)nc3cc(OC)c(OC)cc23)c1 has an IC50 (second compound 0.1 µM) of under 10 nM, an IC50 (second compound 0.316 µM) of under 10 nM and an IC50 (second compound 1 µM) of under 10 nM. For the same compound, the IC50 (second compound 3.16 µM) was under 10 nM, the IC50 (second compound 10 µM) was under 10 nM and the viability, T/C [1] was 36.4%. For the same compound, the viability, T/C [2] was 35.2%, the viability, T/C [3] was 38.1% and the viability, T/C [4] was 35%. The viability, T/C [5] was 34.9%, the viability, T/C (second compound 0.1 µM, first compound 3.16 µM) was 45.7% and the viability, T/C [6] was 34.3%. The viability, T/C [7] was 33%, the viability, T/C [8] was 38.1% and the viability, T/C [9] was 31.7%. It also gave a viability, T/C [10] of 29.2%, a viability, T/C (second compound 0.316 µM, first compound 3.16 µM) of 37% and a viability, T/C [11] of 34%. The viability, T/C [12] was 28.4%, the viability, T/C [13] was 28% and the viability, T/C [14] was 33.6%. For the same compound, the viability, T/C [15] was 39.8%, the viability, T/C (second compound 1 µM, first compound 3.16 µM) was 42.4% and the viability, T/C [16] was 26.4%. The viability, T/C [17] was 0.11%, the viability, T/C [18] was 0.07% and the viability, T/C [19] was 0.09%. It also gave a viability, T/C [20] of 0.11%, a viability, T/C (second compound 3.16 µM, first compound 3.16 µM) of 34.9% and a viability, T/C [21] of 3.3%. It also gave a viability, T/C [22] of 1.3%, a viability, T/C [23] of 0.1% and a viability, T/C [24] of 0.14%. For the same compound, the viability, T/C [25] was 30.4% and the viability, T/C (second compound 10 µM, first compound 3.16 µM) was 2.73%.

Compound `CCN1CCN(Cc2ccc(Nc3ncc(F)c(-c4cc(F)c5nc(C)n(C(C)C)c5c4)n3)nc2)CC1` + CC1OCC2(CCN(c3cnc(Sc4ccnc(N)c4Cl)c(N)n3)CC2)C1N has an IC50 (second compound 0.1 µM) of over 1000 nM, an IC50 (second compound 0.316 µM) of 370 nM and an IC50 (second compound 1 µM) of 67.5 nM. The IC50 (second compound 3.16 µM) was under 3.16 nM, the IC50 (second compound 10 µM) was under 3.16 nM and the viability, T/C [26] was 104%. The viability, T/C [1] was 93.8%, the viability, T/C [2] was 87.1% and the viability, T/C [3] was 83.7%. For the same compound, the viability, T/C [4] was 75.4%, the viability, T/C [5] was 50.8% and the viability, T/C [27] was 96.8%. It also gave a viability, T/C [6] of 76.6%, a viability, T/C [7] of 73.1% and a viability, T/C [8] of 73%. It also gave a viability, T/C [9] of 49%, a viability, T/C [10] of 37.2% and a viability, T/C [28] of 65.3%. For the same compound, the viability, T/C [11] was 73.2%, the viability, T/C [12] was 53% and the viability, T/C [13] was 42.1%. For the same compound, the viability, T/C [14] was 42.7%, the viability, T/C [15] was 25.9% and the viability, T/C [29] was 33.7%. For the same compound, the viability, T/C [16] was 41.3%, the viability, T/C [17] was 33.5% and the viability, T/C [18] was 27%. The viability, T/C [19] was 25.7%, the viability, T/C [20] was 20.1% and the viability, T/C [30] was 32.6%. The viability, T/C [21] was 27.4%, the viability, T/C [22] was 23.4% and the viability, T/C [23] was 21.5%. It also gave a viability, T/C [24] of 23.9% and a viability, T/C [25] of 13.9%.

`CC(C)n1nc(-c2ccc3oc(N)nc3c2)c2c(N)ncnc21` + CNCc1ccccc1-c1csc(C(C)Nc2nc(C)nc3cc(OC)c(OC)cc23)c1 gave an IC50 (second compound 0.1 µM) of 4.45 nM, an IC50 (second compound 0.316 µM) of 2.24 nM and an IC50 (second compound 1 µM) of 1.78 nM. It also gave an IC50 (second compound 3.16 µM) of under 0.316 nM, an IC50 (second compound 10 µM) of under 0.316 nM and a viability, T/C (second compound 0.1 µM, first compound 0.000316 µM) of 113%. For the same compound, the viability, T/C (second compound 0.1 µM, first compound 0.001 µM) was 86.7%, the viability, T/C [26] was 57.9% and the viability, T/C [1] was 32.5%. It also gave a viability, T/C [2] of 22.2%, a viability, T/C [3] of 15.9% and a viability, T/C (second compound 0.316 µM, first compound 0.000316 µM) of 89.5%. For the same compound, the viability, T/C (second compound 0.316 µM, first compound 0.001 µM) was 69.2%, the viability, T/C [27] was 40.2% and the viability, T/C [6] was 27.9%. The viability, T/C [7] was 19.5%, the viability, T/C [8] was 15.9% and the viability, T/C (second compound 1 µM, first compound 0.000316 µM) was 75.9%. For the same compound, the viability, T/C (second compound 1 µM, first compound 0.001 µM) was 63.1%, the viability, T/C [28] was 35.3% and the viability, T/C [11] was 28.9%. The viability, T/C [12] was 17.3%, the viability, T/C [13] was 14.1% and the viability, T/C (second compound 3.16 µM, first compound 0.000316 µM) was 0.36%. It also gave a viability, T/C (second compound 3.16 µM, first compound 0.001 µM) of 0.49%, a viability, T/C [29] of 0.36% and a viability, T/C [16] of 0.46%. For the same compound, the viability, T/C [17] was 2.66%, the viability, T/C [18] was 0.67% and the viability, T/C (second compound 10 µM, first compound 0.000316 µM) was 0.46%. For the same compound, the viability, T/C (second compound 10 µM, first compound 0.001 µM) was 0.4%, the viability, T/C [30] was 0.42% and the viability, T/C [21] was 0.42%. For the same compound, the viability, T/C [22] was 0.38% and the viability, T/C [23] was 0.52%.

`CCN1CCN(Cc2ccc(Nc3ncc(F)c(-c4cc(F)c5nc(C)n(C(C)C)c5c4)n3)nc2)CC1` + C=CC(=O)N1CCN(c2nc(OCC3CCCN3C)nc3c2CCN(c2cccc4cccc(C)c24)C3)CC1CC#N gave an IC50 (second compound 0.0316 µM) of 422 nM, an IC50 (second compound 0.1 µM) of 58.2 nM and an IC50 (second compound 0.316 µM) of 17.2 nM. The IC50 (second compound 1 µM) was under 3.16 nM, the IC50 (second compound 3.16 µM) was under 3.16 nM and the viability, T/C (second compound 0.0316 µM, first compound 0.00316 µM) was 91.3%. The viability, T/C (second compound 0.0316 µM, first compound 0.01 µM) was 83.8%, the viability, T/C (second compound 0.0316 µM, first compound 0.0316 µM) was 64.1% and the viability, T/C (second compound 0.0316 µM, first compound 0.1 µM) was 65%. It also gave a viability, T/C (second compound 0.0316 µM, first compound 0.316 µM) of 52.4%, a viability, T/C (second compound 0.0316 µM, first compound 1 µM) of 42.9% and a viability, T/C [26] of 65.6%. The viability, T/C [1] was 59.4%, the viability, T/C [2] was 54.7% and the viability, T/C [3] was 43.8%. For the same compound, the viability, T/C [4] was 42.9%, the viability, T/C [5] was 31.6% and the viability, T/C [27] was 57.3%. For the same compound, the viability, T/C [6] was 51.4%, the viability, T/C [7] was 51.3% and the viability, T/C [8] was 38.4%. It also gave a viability, T/C [9] of 34.1%, a viability, T/C [10] of 30.1% and a viability, T/C [28] of 39.4%. The viability, T/C [11] was 33.8%, the viability, T/C [12] was 37.3% and the viability, T/C [13] was 37.1%. For the same compound, the viability, T/C [14] was 37.8%, the viability, T/C [15] was 23.8% and the viability, T/C [29] was 0.71%. The viability, T/C [16] was 1.27%, the viability, T/C [17] was 1.14% and the viability, T/C [18] was 0.26%. For the same compound, the viability, T/C [19] was 0.17% and the viability, T/C [20] was 0.19%.
